Active and inactive are the calls of the source. The calls are words filed in the database; no cut-off is given here.
Experiments:
[1] = Hepatotoxicity in BALB/c mouse xenografted with human MDA-MB-231 cells assessed as effect on blood AST level at 1 to 5 mg/kg, ip administered every 4 days for 7 times measured at 48 hrs post-last administration; format: toxicity, organism-based; settings: in vivo, 720 h, dose 1-5 mg/kg, time 30 day
[2] = target: T1, Poly [ADP-ribose] polymerase 1 (Homo sapiens, UniProt P09874); assay: Inhibition of PARP-1 in human MDA-MB-231 cells assessed as induction of double strand DNA breaks by measuring increase in gammaH2AX level at 2.5 to 12.5 uM incubated for 48 hrs by western blotting analysis; format: cell-based; settings: dose 2.5-12.5 µM
[3] = tested on: HUVEC; assay: […] of angiogenesis in human HUVEC cells assessed as inhibition of capillary tube formation incubated for 8 hrs by inverted microscopic analysis; format: functional, cell-based; settings: dose 0.5-12.5 µM
[4] = tested on: MDA-MB-231; assay: Induction of apoptosis in human MDA-MB-231 cells assessed as necrotic cells at 12.5 uM incubated for 48 hrs by Annexin V-FITC/PI staining based flow cytometry (reference value: 1.86%); format: functional
[5] = target: CDK4/Cyclin D3 (Homo sapiens, UniProt P11802); assay: Inhibition of CDK4/Cyclin D3 (unknown origin); format: protein-complex assay
[6] = Toxicity in BALB/c mouse xenografted with human MDA-MB-231 cells assessed as change in kidney morphological changes at 1 to 5 mg/kg, ip administered every 4 days for 7 times measured at 48 hrs post-last administration by H and E staining based fluorescence microscopic analysis; format: organism-based; settings: in vivo, 720 h, dose 1-5 mg/kg, time 30 day
[7] = Selectivity index, ratio of IC50 for cytotoxicity against human MCF-10A cells to IC50 for cytotoxicity against human MDA-MB-231 cells; format: toxicity, cell-based; settings: MCF-10A cells versus MDA-MB-231 cells, read-out: Ratio IC50
[8] = Toxicity in BALB/c mouse xenografted with human MDA-MB-231 cells assessed as effect on RBC count at 1 to 5 mg/kg, ip administered every 4 days for 7 times measured at 48 hrs post-last administration; format: organism-based, Erythrocyte; settings: in vivo, 720 h, dose 1-5 mg/kg, time 30 day
[9] = Toxicity in BALB/c mouse xenografted with human MDA-MB-231 cells assessed as change in lung morphological changes at 1 to 5 mg/kg, ip administered every 4 days for 7 times measured at 48 hrs post-last administration by H and E staining based fluorescence microscopic analysis; format: organism-based; settings: in vivo, 720 h, dose 1-5 mg/kg, time 30 day
[10] = tested on: MDA-MB-231; assay: Inhibition of colony formation in human MDA-MB-231 cells at 2.5 uM measured after 10 days by crystal violet staining based analysis; format: functional; settings: MDA-MB-231, 240 h, time 10 day
[11] = Renal toxicity in BALB/c mouse xenografted with human MDA-MB-231 cells assessed as effect on blood creatinine level at 1 to 5 mg/kg, ip administered every 4 days for 7 times measured at 48 hrs post-last administration; format: organism-based; settings: in vivo, 720 h, dose 1-5 mg/kg, time 30 day
[12] = tested on: MCF-10A; assay: Induction of cell cycle arrest in human MCF-10A cells at 0.5 to 12.5 uM incubated for 48 hrs by propidium iodide staining based flow cytometry; format: toxicity; settings: dose 0.5-12.5 µM
[13] = tested on: MCF-10A; assay: Induction of apoptosis in human MCF-10A cells at 0.5 to 12.5 uM incubated for 48 hrs by Annexin V-FITC/PI staining based flow cytometry; format: toxicity, cell-based; settings: dose 0.5-12.5 µM
[14] = target: Epidermal growth factor receptor (Homo sapiens, UniProt P00533); assay: Inhibition of EGFR (unknown origin)
[15] = […] of angiogenesis in human HUVEC cells assessed as inhibition of capillary tube formation at 12.5 uM incubated for 8 hrs by inverted microscopic analysis; format: functional; parameters: scale not given: the % may be the effect or the level left
[16] = Toxicity in BALB/c mouse xenografted with human MDA-MB-231 cells assessed as change in liver morphological changes at 1 to 5 mg/kg, ip administered every 4 days for 7 times measured at 48 hrs post-last administration by H and E staining based fluorescence microscopic analysis; format: organism-based; settings: in vivo, 720 h, dose 1-5 mg/kg, time 30 day
[17] = tested on: MDA-MB-231; assay: Induction of apoptosis in human MDA-MB-231 cells assessed as late apoptotic cells at 2.5 uM incubated for 48 hrs by Annexin V-FITC/PI staining based flow cytometry (reference value: 5.06%); format: functional
[18] = target: Tubulin (Bos taurus) (UniProt Q6B856+Q862L2+Q862F3); assay: Inhibition of [3H]colchicine binding to tubulin to bovine brain tubulin at 5 to 50 uM by competitive binding assay; format: tissue-based; settings: dose 5-50 µM
[19] = tested on: MDA-MB-231; assay: Induction of apoptosis in human MDA-MB-231 cells assessed as late apoptotic cells at 0.5 uM incubated for 48 hrs by Annexin V-FITC/PI staining based flow cytometry (reference value: 5.06%); format: functional
[20] = tested on: MDA-MB-231; assay: Induction of apoptosis in human MDA-MB-231 cells assessed as necrotic cells at 2.5 uM incubated for 48 hrs by Annexin V-FITC/PI staining based flow cytometry (reference value: 1.86%); format: functional
[21] = target: T1, Poly [ADP-ribose] polymerase 1; assay: Inhibition of PARP1 (unknown origin) using [3H]NAD+ as substrate incubated for 15 mins by scintillation counting analysis; settings: read-out: IC50
[22] = tested on: MDA-MB-231; assay: Induction of cell cycle arrest in human MDA-MB-231 cells assessed as proportion of cells at G2/M phase at 0.5 uM incubated for 48 hrs by propidium iodide staining based flow cytometry (reference value: 9.81%); format: functional
[23] = Toxicity in BALB/c mouse xenografted with human MDA-MB-231 cells assessed as increase in body weight at 1 to 5 mg/kg, ip administered every 4 days for 7 times; format: organism-based; settings: in vivo, 672 h, dose 1-5 mg/kg, time 28 day
[24] = target: Tubulin (Homo sapiens) (UniProt P68371+Q9H4B7+P0DPH7+P68366+Q13509+Q71U36+P04350+Q3ZCM7+P07437+P68363+Q9BQE3+Q6PEY2+Q13885+Q9BVA1+Q9BUF5); assay: Inhibition of tubulin polymerization in human MCF-10A cells assessed as destruction of normal microtubule network at 0.5 to 12.5 uM incubated for 48 hrs by immunofluorescence assay; format: cell-based; settings: dose 0.5-12.5 µM
[25] = tested on: MDA-MB-231; assay: Cytotoxicity against human MDA-MB-231 cells assessed as inhibition of cell growth incubated for 72 hrs by MTT assay; format: functional, cell-based

O=c1[nH]c(/C=C/c2cccc(F)c2)nc2ccccc12
Activity [1]: Non-Toxic | inhibition [2]: Active | Activity [3]: Dose-Dependent Effect | Activity [4]: 4.29% | IC50 [5]: > 10 µM | Activity [6]: Non-Toxic | selectivity ratio [7]: > 14 | Activity [8]: Non-Toxic | Activity [9]: Non-Toxic | inhibition at 2.5 µM [10]: 100% | Activity [11]: Non-Toxic | Activity [12]: Non-Toxic | Activity [13]: Non-Toxic | IC50 [14]: > 10 µM | Activity [15]: 100% | Activity [16]: Non-Toxic | Activity [17]: 6.62% | inhibition [18]: Active | Activity [19]: 6.39% | Activity [20]: 1% | IC50 [21]: 480 nM | Activity [22]: 23.57% | Activity [23]: Toxic | inhibition [24]: inactive | Activity [25]: Active

Reference: ChEMBL document CHEMBL5241106, “Discovery of a Dual Tubulin and Poly(ADP-Ribose) Polymerase-1 Inhibitor by Structure-Based Pharmacophore Modeling, Virtual Screening, Molecular Docking, and Biological Evaluation” (J Med Chem, 2021)
